Target: T1, porcine cardiac ventricle myosin (pc-HMM; beta-cardiac myosin heavy chain) (Sus scrofa, UniProt P79293)
T1 construct: gene MYH7; chymotryptic heavy meromyosin (pc-HMM); also S1 (pc-S1); with myosin light chains (RLC, essential light chain)
Assay: stopped-flow FRET (Trp to mant) displacement and multiple-turnover assay; kcat […] s^-1
Format: biochemical

T1 sequence (P79293 whole entry): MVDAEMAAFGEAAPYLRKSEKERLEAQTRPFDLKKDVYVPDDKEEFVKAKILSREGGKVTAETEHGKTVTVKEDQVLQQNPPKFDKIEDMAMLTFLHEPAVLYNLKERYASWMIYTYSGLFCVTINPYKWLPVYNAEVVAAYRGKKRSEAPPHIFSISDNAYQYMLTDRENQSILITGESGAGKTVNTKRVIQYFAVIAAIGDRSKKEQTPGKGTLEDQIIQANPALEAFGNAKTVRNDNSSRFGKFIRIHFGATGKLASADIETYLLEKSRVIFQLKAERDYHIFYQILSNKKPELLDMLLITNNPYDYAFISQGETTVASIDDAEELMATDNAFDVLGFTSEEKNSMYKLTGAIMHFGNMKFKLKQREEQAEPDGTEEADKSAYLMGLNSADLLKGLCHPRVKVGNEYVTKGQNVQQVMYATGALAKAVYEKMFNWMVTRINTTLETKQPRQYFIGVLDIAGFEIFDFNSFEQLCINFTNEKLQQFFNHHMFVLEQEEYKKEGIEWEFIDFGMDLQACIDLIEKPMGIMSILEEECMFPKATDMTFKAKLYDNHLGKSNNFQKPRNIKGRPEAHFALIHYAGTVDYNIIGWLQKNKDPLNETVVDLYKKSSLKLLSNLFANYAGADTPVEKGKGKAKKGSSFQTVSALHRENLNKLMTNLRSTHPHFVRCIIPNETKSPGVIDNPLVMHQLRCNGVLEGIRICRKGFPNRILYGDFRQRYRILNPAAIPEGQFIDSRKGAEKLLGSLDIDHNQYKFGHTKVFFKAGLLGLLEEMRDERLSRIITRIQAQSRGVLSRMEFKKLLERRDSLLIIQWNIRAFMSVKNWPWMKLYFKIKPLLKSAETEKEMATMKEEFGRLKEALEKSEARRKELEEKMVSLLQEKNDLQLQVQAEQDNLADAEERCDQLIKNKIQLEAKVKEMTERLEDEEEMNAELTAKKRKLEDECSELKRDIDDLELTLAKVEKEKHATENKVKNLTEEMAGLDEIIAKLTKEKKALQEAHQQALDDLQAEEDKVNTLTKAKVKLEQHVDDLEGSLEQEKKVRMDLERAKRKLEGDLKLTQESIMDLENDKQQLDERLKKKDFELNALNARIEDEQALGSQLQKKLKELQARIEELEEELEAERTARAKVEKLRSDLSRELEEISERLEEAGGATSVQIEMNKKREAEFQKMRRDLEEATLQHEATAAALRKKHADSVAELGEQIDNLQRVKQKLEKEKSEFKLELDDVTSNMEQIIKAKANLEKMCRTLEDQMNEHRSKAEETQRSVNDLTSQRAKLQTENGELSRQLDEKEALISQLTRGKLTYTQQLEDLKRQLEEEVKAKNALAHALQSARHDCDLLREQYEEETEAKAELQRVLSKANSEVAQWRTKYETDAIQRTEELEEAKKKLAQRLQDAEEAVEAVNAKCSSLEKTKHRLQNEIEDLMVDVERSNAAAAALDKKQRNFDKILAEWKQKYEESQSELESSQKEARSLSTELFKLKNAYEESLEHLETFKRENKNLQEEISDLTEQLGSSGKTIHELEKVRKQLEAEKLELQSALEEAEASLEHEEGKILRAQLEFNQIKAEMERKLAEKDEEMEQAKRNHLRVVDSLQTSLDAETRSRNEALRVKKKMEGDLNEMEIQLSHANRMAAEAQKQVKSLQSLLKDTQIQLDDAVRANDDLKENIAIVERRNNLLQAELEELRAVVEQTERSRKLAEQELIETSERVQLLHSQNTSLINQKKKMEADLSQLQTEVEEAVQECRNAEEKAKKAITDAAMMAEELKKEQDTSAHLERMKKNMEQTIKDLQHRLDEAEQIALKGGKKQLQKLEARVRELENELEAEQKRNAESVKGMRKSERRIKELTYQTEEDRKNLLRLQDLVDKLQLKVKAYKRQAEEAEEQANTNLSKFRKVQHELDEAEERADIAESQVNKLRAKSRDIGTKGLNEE

CNc1ccccc1C(=O)O[C@H]1C[C@H](n2cnc3c(N)ncnc32)O[C@@H]1COP(=O)(O)OP(=O)(O)OP(=O)(O)O [mant.dATP]
kcat (s^-1) / Mean: 0.0282 s⁻¹

Source: paper PMC10819765, “The biochemically defined super relaxed state of myosin—A paradox” (The Journal of Biological Chemistry, 2023)
